Measured values as given in patent US20200399250A1, “Pyrimidine Derivatives as Tropomyosin Receptor Kinase A (TRKA) Inhibitors” (BIOMED X GMBH, priority 2017, published 2020).
Entries after “also recorded” stand apart in the source; their conditions may differ.

Legend:
panel of 97 kinases = assay: Selectivity profiling, scanEDGE kinase panel (KINOMEscan); type: binding; conditions: 100 nM, cut-off <35% ctrl
Description: Selectivity profiling was done over a panel of 97 kinases at 100 nM concentration (scanEDGE assay panel from Discover X, which also uses the KINOMEscan technology, whereat KIT(D816V) and KIT (V559D, T6701) were replaced by TrkB and TrkC). […] The employed profiling panel consisted of the following kinases: ABL1(T3151)-phosphorylated, ABL1-nonphosphorylated, ABL1-phosphorylated, ACVR1B, ADCK3, AKT1, AKT2, ALK, AURKA, AURKB, AXL, BMPR2, BRAF, BRAF (V600E), BTK, CDK11, CDK2, CDK3, CDK7, CDK9, CHEK1, CSF1R, CSNK1D, CSNK1G2, DCAMKL1, DYRK1B, EGFR, EGFR (L858R), EPHA2, ERBB2, ERBB4, ERK1, FAK, FGFR2, FGFR3, FLT3, GSK3B, IGF1R, IKK-alpha, IKK-beta, INSR, JAK2 (JH1domain-catalytic), JAK3 (JH1domain-catalytic), JNK1, JNK2, JNK3, KIT, LKB1, MAP3K4, MAPKAPK2, MARK3, MEK1, MEK2, MET, MKNK1, MKNK2, MLK1, p38-alpha, p38-beta, PAK1, PAK2, PAK4, PCTK1, PDGFRA, PDGFRB, PDPK1, PIK3C2B, PIK3CA, PIK3CG, PIM1, PIM2, PIM3, PKAC-alpha, PLK1, PLK3, PLK4, PRKCE, RAF1, RET, RIOK2, ROCK2, RSK2 (Kin. Dom. 1-N-terminal), SNARK, SRC, SRPK3, TGFBR1, TIE2, TRKA, TRKB, TRKC, TSSK1B, TYK2 (JH1domain-catalytic), ULK2, VEGFR2, YANK3, ZAP70

TrkA [1] = target: T1, TrkA (Homo sapiens, UniProt P04629); assay: KINOMEscan primary screen against TrkA; type: binding; conditions: % of control
Description: (§1) Compounds were initially tested in a primary screen against TrkA (at 10 and 100 nM) and AurA (at 100 nM and 1 μM) using the KINOMEscan technology from DiscoverX Corporation, Fremont, Calif., USA (https://www.discoverx.com/services/drug-discovery-development-services/kinase-profiling/kinomescan).
Results were reported as % of control (% Ctrl.=(test compound signal−positive control signal)/(DMSO signal−positive control signal). KINOMEscan is an active site-directed competition binding assay that quantitatively measures the ability of a compound to compete with an immobilized, active-site directed ligand.

AurA [2] = target: T2, AurA (Homo sapiens, UniProt O14965); assay: KINOMEscan primary screen against AurA; type: binding; conditions: % of control
T2 sequence (O14965 1-403): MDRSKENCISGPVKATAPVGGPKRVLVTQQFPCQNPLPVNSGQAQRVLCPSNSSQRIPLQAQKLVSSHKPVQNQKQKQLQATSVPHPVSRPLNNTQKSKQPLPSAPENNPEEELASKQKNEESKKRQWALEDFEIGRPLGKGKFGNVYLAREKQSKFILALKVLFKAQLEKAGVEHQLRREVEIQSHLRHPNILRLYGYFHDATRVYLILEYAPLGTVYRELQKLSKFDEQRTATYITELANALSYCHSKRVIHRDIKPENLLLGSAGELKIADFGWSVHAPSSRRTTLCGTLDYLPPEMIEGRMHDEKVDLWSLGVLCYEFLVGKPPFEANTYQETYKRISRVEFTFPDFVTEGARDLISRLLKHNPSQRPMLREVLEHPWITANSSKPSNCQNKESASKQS
Description: as §1

[3] = target: full-length human TrkA receptor (Homo sapiens, UniProt P04629); assay: PathHunter cellular functional assay, antagonism of β-NGF; type: cell-based; conditions: antagonism at EC80 (0.03 μg/ml) of β-NGF; read-out: Cellular assay [RC50]
From the text: The two compounds a1 and b7 were additionally tested in a functional assay using the PathHunter® technology (DiscoverX Corporation, Freemont, Calif., USA; https://www.discoverx.com/technologies-platforms/enzyme-fragment-complementation-technoloqy/cell-based-efc-assays/protein-protein-interactions/kinases-cell-based-(rtk-ctk)). In this assay, the full-length human TrkA receptor (i.e. including ligand-binding and kinase domains) is expressed as a C-terminal (intracellular) fusion with a small peptide epitope, called Prolink™ (PK). Furthermore, a SH2 domain containing protein (i.e. Shc1) is co-expressed with a larger Enzyme Acceptor (EA) fragment. Activation of the TrkA receptor by adding the agonist ligand (β-NGF), leads to the auto-phosphorylation of the kinase and subsequent binding of the Shc1-EA protein. That recruitment results in an active B-galactosidase enzyme that is detected by addition of a chemiluminescent substrate.
Compounds were tested for antagonism using EC80 concentration (i.e. 0.03 μg/ml) of β-NGF. Data was normalized to the maximal and minimal response observed in the presence of EC80 agonist ligand (3-NGF) and vehicle (DMSO, final concentration 1%), respectively.

TrkA [4] = assay: KdELECT Kd measurement (KINOMEscan), TrkA; type: binding; conditions: TrkA pKd versus AurA pKd
Description: (§2) Kd measurements were done via the KdELECT product service from DiscoverX Corporation (Freemont, Calif., USA) which also employs the KINOMEscan technology. Here, inhibitor binding constants (Kd values) are calculated from duplicate 11-point dose-response curves.

TrkA [5] = target: T1, TrkA; assay: KdELECT Kd measurement (KINOMEscan), TrkA; type: binding
Description: as §2

AurA [6] = target: T2, AurA; assay: KdELECT Kd measurement (KINOMEscan), AurA; type: binding
Description: as §2

[7] = duplicate 11-point dose-response curves

T1 sequence (P04629 33-796): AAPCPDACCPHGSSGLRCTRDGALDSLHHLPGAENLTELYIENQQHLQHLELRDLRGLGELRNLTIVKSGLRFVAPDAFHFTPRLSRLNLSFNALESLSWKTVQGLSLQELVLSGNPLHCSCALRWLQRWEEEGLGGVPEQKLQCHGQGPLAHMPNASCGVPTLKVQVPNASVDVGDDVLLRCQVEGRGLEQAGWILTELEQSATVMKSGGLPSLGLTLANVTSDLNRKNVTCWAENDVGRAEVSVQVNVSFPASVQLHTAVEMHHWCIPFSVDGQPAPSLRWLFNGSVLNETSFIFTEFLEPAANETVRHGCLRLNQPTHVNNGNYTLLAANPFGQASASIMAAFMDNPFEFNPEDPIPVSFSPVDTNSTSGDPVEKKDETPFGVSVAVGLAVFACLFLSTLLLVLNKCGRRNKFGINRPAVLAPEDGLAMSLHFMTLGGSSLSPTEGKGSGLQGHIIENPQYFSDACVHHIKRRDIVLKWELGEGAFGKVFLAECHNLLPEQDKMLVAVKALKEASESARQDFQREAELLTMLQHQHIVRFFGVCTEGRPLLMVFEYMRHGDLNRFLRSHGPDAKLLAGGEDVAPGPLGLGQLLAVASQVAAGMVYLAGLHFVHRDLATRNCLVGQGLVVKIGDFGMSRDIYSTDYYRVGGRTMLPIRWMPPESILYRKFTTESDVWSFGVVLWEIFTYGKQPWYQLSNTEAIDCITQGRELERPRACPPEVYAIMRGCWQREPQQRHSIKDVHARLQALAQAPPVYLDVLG
Chain of full-length human TrkA receptor (P04629 33-796): as above
Chain of full-length human TrkA receptor (P01138 122-241 partner): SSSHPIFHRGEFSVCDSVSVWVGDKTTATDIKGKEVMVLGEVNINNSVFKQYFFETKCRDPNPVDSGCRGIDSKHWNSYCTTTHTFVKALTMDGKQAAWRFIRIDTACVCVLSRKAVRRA

Cc1cc(Nc2cc(N3CCN(C)CC3)nc(SCc3ccc(F)cc3)n2)n[nH]1 [b7, 2-{[(4-fluorophenyl)methyl]sulfanyl}-N-(5-methyl-1H-pyrazol-3-yl)-6-(4-methylpiperazin-1-yl)pyrimidin-4-amine]
# Hits (panel of 97 kinases; N = 92 non-mutant kinases): 18 | List of inhibited kinases (panel of 97 kinases): TrkA, TrkB, TrkC, ABL1, ALK,; also recorded: AurA, FLT3, FMS, JAK2, JAK3,; also recorded: KDR, KIT, NuaK2, PDGFRb, PLK4,; also recorded: RET, SRC, TYK2 | Selectivity Score (panel of 97 kinases; inhibited kinases/tested kinases): 0.196 | % Ctrl. TrkA @10 nM (TrkA [1]; 10 nM compound): 9.3 % Ctrl. | % Ctrl. TrkA @100 nM (TrkA [1]; 100 nM compound): 0.5 % Ctrl. | % Ctrl. AurA @100 nM (AurA [2]; 100 nM compound): 15 % Ctrl. | % Ctrl. AurA @1 μM (AurA [2]; 1 μM compound): 0.85 % Ctrl. | IC50 [3]: 23 nM | ΔpKd (TrkA [4]): 1.4 | TrkA [pKd] (TrkA [5]): 9.0 | Kd (TrkA [5]; [7]): 1.1 nM | AurA [pKd] (AurA [6]): 7.6 | Kd (AurA [6]; [7]): 28 nM
